# According to patent US20090069320A1, “Substituted 4-Amino-Quinazoline Compounds with Metabotropic Glutamate Receptor Regulating Activity and Uses Thereof” (Gruenenthal GmbH, priority 2006, published 2009):
# Counter-ions that a name gives are not always drawn.
# Molecular target: T1, mGluR5 receptor (Sus scrofa, UniProt I3LUI7)
# T1 construct: 450 μg of protein from brain homogenate with 5 nM ^3[H]-MPEP; from tissue; host or cells: pig brain halves without medulla, cerebellum and pons
# Assay: [3H]-MPEP mGluR5 receptor binding assay (pig brain homogenate)
# Conditions: 5 nM [3H]-MPEP; for inhibition at 10 µM / % Inhibition of mGluR5 Receptor (pig) [^3H]-MPEP Bond at 10 μM: 10 μM compound; for inhibition at 10 µM: read-out: % Inhibition of mGluR5 Receptor (pig) [^3H]-MPEP Bond at 10 μM; for IC50: read-out: IC50 mGluR5 Receptor (pig) [^3H]-MPEP Bond
# How it was run: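 Compounds at 10 μM competed with 5 nM [3H]-MPEP for binding to pig brain membranes (450 μg protein) for 60 min at room temperature in pH 8.0 Hepes buffer. Bound radioactivity was collected on glass-fibre filters and read by β-counting, with 10 μM unlabelled MPEP giving non-specific binding.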
# T1 sequence (I3LUI7 19-1212): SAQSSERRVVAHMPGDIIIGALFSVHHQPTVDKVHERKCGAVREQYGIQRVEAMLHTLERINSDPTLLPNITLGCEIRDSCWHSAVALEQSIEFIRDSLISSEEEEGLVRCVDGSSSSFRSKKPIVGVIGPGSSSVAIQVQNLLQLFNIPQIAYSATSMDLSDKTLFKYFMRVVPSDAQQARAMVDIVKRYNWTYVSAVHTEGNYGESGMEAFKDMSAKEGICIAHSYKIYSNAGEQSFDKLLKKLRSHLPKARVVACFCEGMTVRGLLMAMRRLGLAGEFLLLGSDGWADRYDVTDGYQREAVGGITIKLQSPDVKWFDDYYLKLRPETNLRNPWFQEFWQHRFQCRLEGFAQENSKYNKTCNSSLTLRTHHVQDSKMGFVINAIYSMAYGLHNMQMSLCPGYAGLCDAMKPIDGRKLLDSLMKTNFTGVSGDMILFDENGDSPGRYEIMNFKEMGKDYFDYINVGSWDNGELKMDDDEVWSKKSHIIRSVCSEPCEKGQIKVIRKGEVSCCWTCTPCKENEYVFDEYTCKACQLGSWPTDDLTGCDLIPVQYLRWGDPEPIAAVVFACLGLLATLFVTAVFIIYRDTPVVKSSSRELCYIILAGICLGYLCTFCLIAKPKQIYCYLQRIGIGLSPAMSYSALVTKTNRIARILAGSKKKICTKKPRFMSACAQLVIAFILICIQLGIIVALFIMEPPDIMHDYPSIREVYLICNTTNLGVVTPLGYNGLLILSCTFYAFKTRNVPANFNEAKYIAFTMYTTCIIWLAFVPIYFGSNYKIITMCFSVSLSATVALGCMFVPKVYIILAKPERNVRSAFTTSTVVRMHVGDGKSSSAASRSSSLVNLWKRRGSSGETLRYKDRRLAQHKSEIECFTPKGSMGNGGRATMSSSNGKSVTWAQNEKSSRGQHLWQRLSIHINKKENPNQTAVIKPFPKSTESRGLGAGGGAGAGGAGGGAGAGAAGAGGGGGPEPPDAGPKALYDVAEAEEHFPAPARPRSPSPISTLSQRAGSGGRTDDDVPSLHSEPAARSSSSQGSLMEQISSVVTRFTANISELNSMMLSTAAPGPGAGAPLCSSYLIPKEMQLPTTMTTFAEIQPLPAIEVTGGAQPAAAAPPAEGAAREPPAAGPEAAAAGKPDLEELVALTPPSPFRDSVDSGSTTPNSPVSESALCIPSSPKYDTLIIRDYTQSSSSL
inhibition at 10 µM [%],Compound,also measured
48,"CC(C)Nc1ncnc2ccc(-c3cccc(CN(Cc4ccccc4)C(=O)c4cnccn4)c3)cc12 [Example 45, pyrazine-2-carboxylic acid benzyl-[3-(4-isopropylamino-quinazolin-6-yl)-benzyl]-amide]",
66,"Cc1nc(NC2CC2)c2cc(-c3cccc(CN(C(=O)Cc4ccccc4)C4CC4)c3)ccc2n1 [Example 544, N-cyclopropyl-N-(3-(4-(cyclopropylamino)-2-methylquinazolin-6-yl)benzyl)-2-phenylacetamide]",
37,"CC(C)Nc1ncnc2ccc(-c3cccc(CN(Cc4ccccc4)C(=O)c4cccs4)c3)cc12 [Example 154, thiophene-2-carboxylic acid benzyl-[3-(4-isopropylamino-quinazolin-6-yl)-benzyl]-amide]",
,"CNc1ncnc2ccc(-c3cccc(CN4C(=O)CCC4=O)c3)cc12 [Example 198, 1-[3-(4-methylamino-quinazolin-6-yl)-benzyl]-pyrrolidine-2,5-dione]",IC50: 5.19 µM
67,"CS(=O)(=O)N(Cc1cc(-c2ccc3ncnc(NC4CC4)c3c2)ccn1)C1CC1 [Example 853, N-cyclopropyl-N-((4-(4-(cyclopropylamino)quinazolin-6-yl)pyridin-2-yl)methyl)methane sulfonamide]",
93,"O=C(CCc1ccccc1)N(Cc1cc(-c2ccc3ncnc(NC4CC4)c3c2)ccc1F)C1CC1 [Example 414, N-cyclopropyl-N-(5-(4-(cyclopropylamino)quinazolin-6-yl)-2-fluorobenzyl)-3-phenylpropanamide]",
88,"COCC(=O)N(Cc1cc(-c2ccc3ncnc(NC4CC4)c3c2)ccc1Cl)C1CC1 [Example 801, N-(2-chloro-5-(4-(cyclopropylamino)quinazolin-6-yl)benzyl)-N-cyclopropyl-2-methoxyacetamide]",
,"COCC(=O)N(Cc1cc(-c2ccc3ncnc(NC4CC4)c3c2)ccc1F)C1CC1 [Example 390, N-cyclopropyl-N-(5-(4-(cyclopropylamino)quinazolin-6-yl)-2-fluorobenzyl)-2-methoxyacetamide]",IC50: 0.07 µM
36,"Cc1nc(NC2CC2)c2cc(-c3ccc(F)c(CN(C(=O)c4ccncc4)C4CC4)c3)ccc2n1 [Example 608, N-cyclopropyl-N-(5-(4-(cyclopropylamino)-2-methylquinazolin-6-yl)-2-fluorobenzyl)isonicotinamide]",
87,"CC(C)(C)Nc1ncnc2ccc(-c3ccc(F)c(CN(C(=O)Cc4ccccc4)C4CC4)c3)cc12 [Example 815, N-(5-(4-(tert-butylamino)quinazolin-6-yl)-2-fluorobenzyl)-N-cyclopropyl-2-phenylacetamide]",
95,"Cc1cc2ncnc(NC3CC3)c2cc1-c1cccc(CN(C(=O)c2ccccc2)C2CC2)c1 [Example 714, N-cyclopropyl-N-(3-(4-(cyclopropylamino)-7-methylquinazolin-6-yl)benzyl)benzamide]",
56,"CN(Cc1cccc(-c2ccc3ncnc(NC4CC4)c3c2)c1)c1ccccn1 [Example 878, N-cyclopropyl-6-(3-((methyl(pyridin-2-yl)amino)methyl)phenyl)quinazoline-4-amine]",
,"O=C1CCC(c2ccccc2)C(=O)N1Cc1cccc(-c2ccc3ncnc(NC4CC4)c3c2)c1 (stereo not drawn) [Example 220, 1-[3-(4-cyclopropylamino-quinazolin-6-yl)-benzyl]-3-phenyl-piperidine-2,6-dione; hydrochloride]",IC50: 4.25 µM
97,"O=C(Cc1ccccn1)N(Cc1cccc(-c2ccc3ncnc(NC4CC4)c3c2)c1)C1CC1 [Example 174, N-cyclopropyl-N-[3-(4-cyclopropylamino-quinazolin-6-yl)-benzyl]-2-pyridin-2-yl-acetamide]",
36,"COc1ccc(CNc2ncnc3ccc(-c4cccc(CN(C(C)=O)C5CC5)c4)cc23)c(OC)c1 [Example 657, N-cyclopropyl-N-(3-(4-(2,4-dimethoxybenzylamino)quinazolin-6-yl)benzyl)acetamide]",
90,"COc1ccc(C(=O)N(Cc2cc(-c3ccc4ncnc(NC5CC5)c4c3)ccc2F)C2CC2)cc1OC [Example 366, N-cyclopropyl-N-(5-(4-(cyclopropylamino)quinazolin-6-yl)-2-fluorobenzyl)-3,4-dimethoxybenzamide]",
73,"O=C(c1ccccc1)N(Cc1cc(-c2ccc3ncnc(NC4CC4)c3c2)ccn1)C1CC1 [Example 813, N-cyclopropyl-N-((4-(4-(cyclopropylamino)quinazolin-6-yl)pyridin-2-yl)methyl)benzamide]",
32,"O=C(c1ccccc1C(F)(F)F)N(Cc1cccc(-c2ccc3ncnc(N4CCCC4)c3c2)c1)C1CC1 [Example 135, N-cyclopropyl-N-[3-(4-pyrrolidin-1-yl-quinazolin-6-yl)-benzyl]-2-trifluoromethyl-benzamide]",

inhibition at 10 µM [%],Compound,also measured
,"O=C1CCC(=O)N1Cc1cccc(-c2ccc3ncnc(NC4CCC4)c3c2)c1 [Example 872, 1-(3-(4-(cyclobutylamino)quinazolin-6-yl)benzyl)pyrrolidine-2,5-dione hydrochloride]",IC50: 0.05 µM
44,"Cc1cccc(CNc2ncnc3ccc(-c4cccc(CN(C(=O)c5ccccn5)C5CC5)c4)cc23)c1 [Example 395, N-cyclopropyl-N-(3-(4-(3-methylbenzylamino)quinazolin-6-yl)benzyl)picolinamide]",
,"O=C(c1ccno1)N(Cc1cc(-c2ccc3ncnc(NC4CC4)c3c2)ccc1Cl)C1CC1 [Example 762, N-(2-chloro-5-(4-(cyclopropylamino)quinazolin-6-yl)benzyl)-N-cyclopropyl isoxazole-5-carboxamide]",% Inhibition of mGluR5 Receptor (pig) [^3H]-MPEP Bond at 10 μM: 91%
,"CC(=O)N(CCc1ccccc1)Cc1cccc(-c2ccc3ncnc(NC4CC4)c3c2)c1 [Example 214, N-[3-(4-cyclopropylamino-quinazolin-6-yl)-benzyl]-N-phenethyl-acetamide]",IC50: 6.92 µM
91,"O=C(c1cccc(F)c1)N(Cc1cc(-c2ccc3ncnc(NC4CC4)c3c2)ccc1F)C1CC1 [Example 374, N-cyclopropyl-N-(5-(4-(cyclopropylamino)quinazolin-6-yl)-2-fluorobenzyl)-3-fluorobenzamide]",
,"O=S(=O)(c1c(F)c(F)c(F)c(F)c1F)N(Cc1cc(-c2ccc3ncnc(NC4CC4)c3c2)ccc1F)C1CC1 [Example 399, N-cyclopropyl-N-(5-(4-(cyclopropylamino)quinazolin-6-yl)-2-fluorobenzyl)-2,3,4,5,6-pentafluorobenzole sulfonamide]",% Inhibition of mGluR5 Receptor (pig) [^3H]-MPEP Bond at 10 μM: 39%
57,"O=C(O)CCC(=O)NCc1cccc(-c2ccc3ncnc(Nc4ccccc4)c3c2)c1 [Example 329, 4-oxo-4-(3-(4-(phenylamino)quinazolin-6-yl)benzylamino)butyric acid]",
,"O=C1CCC(=O)N1Cc1cccc(-c2ccc3ncnc(N4CCCC4)c3c2)c1 [Example 880, 1-(3-(4-(pyrrolidin-1-yl)quinazolin-6-yl)benzyl)pyrrolidine-2,5-dione]",IC50: 4.3 µM
50,"CCCCNCc1cccc(-c2ccc3ncnc(NC4CC4)c3c2)c1 [Example 310, 6-(3-((butylamino)methyl)phenyl)-N-cyclopropylquinazoline-4-amine]",
89,"Cc1cc2ncnc(NC3CC3)c2cc1-c1cccc(CN(C(=O)c2ccncc2)C2CC2)c1 [Example 707, N-cyclopropyl-N-(3-(4-(cyclopropylamino)-7-methylquinazolin-6-yl)benzyl)isonicotinamide]",
89,"CCCCC(=O)N(Cc1cc(-c2ccc3ncnc(NC4CC4)c3c2)ccc1F)C1CC1 [Example 382, N-cyclopropyl-N-(5-(4-(cyclopropylamino)quinazolin-6-yl)-2-fluorobenzyl)pentanamide]",
,"Cc1cc2ncnc(NC3CC3)c2cc1-c1cccc(CN2C(=O)CCC2=O)c1 [Example 884, 1-(3-(4-(cyclopropylamino)-7-methylquinazolin-6-yl)benzyl)pyrrolidine-2,5-dione]",IC50: 0.13 µM
67,"O=C(c1cccnc1)N(Cc1cccc(-c2cc(F)c3ncnc(NC4CC4)c3c2)c1)C1CC1 [Example 781, N-cyclopropyl-N-(3-(4-(cyclopropylamino)-8-fluoroquinazolin-6-yl)benzyl)nicotinamide]",
38,"CC(C)Nc1ncnc2ccc(-c3cccc(CN(Cc4ccccc4)C(=O)CC#N)c3)cc12 [Example 53, N-benzyl-2-cyano-N-[3-(4-isopropylamino-quinazolin-6-yl)-benzyl]-acetamide]",
31,"Cc1nc(NC2CC2)c2cc(-c3cccc(CN(C(=O)c4cccc(F)c4)C4CC4)c3)ccc2n1 [Example 509, N-cyclopropyl-N-(3-(4-(cyclopropylamino)-2-methylquinazolin-6-yl)benzyl)-3-fluorobenzamide]",
42,"COc1ccc(C(=O)N(Cc2cc(-c3ccc4nc(C)nc(NC5CC5)c4c3)ccc2F)C2CC2)cc1OC [Example 558, N-cyclopropyl-N-(5-(4-(cyclopropylamino)-2-methylquinazolin-6-yl)-2-fluorobenzyl)-3,4-dimethoxybenzamide]",
66,"Cc1cc2ncnc(NC3CC3)c2cc1-c1cccc(CN(C(=O)C2CCCCC2)C2CC2)c1 [Example 653, N-cyclopropyl-N-(3-(4-(cyclopropylamino)-7-methylquinazolin-6-yl)benzyl)cyclohexane carboxamide]",
43,"Cc1cc2ncnc(NC3CC3)c2cc1-c1cccc(CN(C(=O)CN(C)C)C2CC2)c1 [Example 723, N-cyclopropyl-N-(3-(4-(cyclopropylamino)-7-methylquinazolin-6-yl)benzyl)-2-(dimethylamino)acetamide]",
